Source: PubChem BioAssay AID248 (DTP/NCI, 2004)
Where “and” joins values, the source holds several entries; their conditions need not be identical. Equal entries are not always repeated. Inconclusive results and toxic doses are left out. No stated cut-off is given here; in the data, active means T/C of 150% or more; inactive means T/C below 125%.

Test system: L1210 leukemia ip in BDF1 mice, survival T/C
Test: NCI In Vivo Anticancer Drug Screen. Data for tumor model L1210 Leukemia (intraperitoneal) in B6D2F1 (BDF1) mice
Details: endpoint: mean survival time, higher = longer survival
Outline: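 Antitumor effect is assessed in tumor-bearing animals. Survival in the compound arm is compared with a vehicle-dosed control arm and expressed as their quotient.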

[1] = dose: 100.0 mg/kg/injection, schedule: Q04DX003 (ip), vehicle: saline
[2] = dose: 200.0 mg/kg/injection, schedule: Q04DX003 (ip), vehicle: saline
[3] = dose: 100.0 mg/kg/injection, schedule: Q01DX001 (ip), vehicle: saline
[4] = dose: 100.0 mg/kg/injection, schedule: Q04DX003 (ip), vehicle: Klucel (hydroxypropylcellulose) (HPC)
[5] = dose: 25.0 mg/kg/injection, schedule: Q01DX009 (ip), vehicle: Klucel (hydroxypropylcellulose) (HPC)
[6] = dose: 50.0 mg/kg/injection, schedule: Q01DX009 (ip), vehicle: Klucel (hydroxypropylcellulose) (HPC)
[7] = dose: 100.0 mg/kg/injection, schedule: Q01DX009 (ip), vehicle: Klucel (hydroxypropylcellulose) (HPC)
[8] = dose: 200.0 mg/kg/injection, schedule: Q04DX003 (ip), vehicle: Klucel (hydroxypropylcellulose) (HPC)
[9] = dose: 400.0 mg/kg/injection, schedule: Q04DX003 (ip), vehicle: Klucel (hydroxypropylcellulose) (HPC)
[10] = dose: 200.0 mg/kg/injection, schedule: Q01DX009 (ip), vehicle: Klucel (hydroxypropylcellulose) (HPC)

Measured: T/C

CC1(C)COC(CC2CCCCC2)=N1
inactive: dose: 25.0 mg/kg/injection, schedule: Q01DX009 (ip), vehicle: saline with Tween-80 105 % of control | dose: 50.0 mg/kg/injection, schedule: Q01DX009 (ip), vehicle: saline with Tween-80 102 % of control | dose: 50.0 mg/kg/injection, schedule: Q04DX003 (ip), vehicle: saline 94 % of control | dose: 100.0 mg/kg/injection, schedule: Q01DX009 (ip), vehicle: saline with Tween-80 102 % of control | [1] 91 % of control | dose: 200.0 mg/kg/injection, schedule: Q01DX009 (ip), vehicle: saline with Tween-80 96 % of control | [2] 86 % of control

c1ccc2occc2c1
inactive: [3] 103 % of control

CCCC[As](=O)(O)CCCc1ccccc1
inactive: dose: 0.78 mg/kg/injection, schedule: Q01DX009 (ip), vehicle: saline 97 % of control | dose: 1.56 mg/kg/injection, schedule: Q01DX009 (ip), vehicle: saline 100 % of control | dose: 3.13 mg/kg/injection, schedule: Q01DX009 (ip), vehicle: saline 103 % of control

N=C(N)SC1c2ccccc2-c2ccccc21
inactive: dose: 10.0 mg/kg/injection, schedule: Q04DX002 (ip), vehicle: Klucel (hydroxypropylcellulose) (HPC) 97 % of control | dose: 20.0 mg/kg/injection, schedule: Q04DX002 (ip), vehicle: Klucel (hydroxypropylcellulose) (HPC) 101 % of control | dose: 40.0 mg/kg/injection, schedule: Q04DX002 (ip), vehicle: Klucel (hydroxypropylcellulose) (HPC) 101 % of control

CN1CSC(=S)N(C)C1
inactive: dose: 25.0 mg/kg/injection, schedule: Q04DX003 (ip), vehicle: Klucel (hydroxypropylcellulose) (HPC) 95 % of control | dose: 50.0 mg/kg/injection, schedule: Q04DX003 (ip), vehicle: Klucel (hydroxypropylcellulose) (HPC) 95 % of control | [4] 95 % of control and 101 % of control

Cc1c(C)c(N)c(C)c(C)c1N
inactive: dose: 6.25 mg/kg/injection, schedule: Q01DX009 (ip), vehicle: Klucel (hydroxypropylcellulose) (HPC) 94 % of control | dose: 12.5 mg/kg/injection, schedule: Q01DX009 (ip), vehicle: Klucel (hydroxypropylcellulose) (HPC) 94 % of control | dose: 12.5 mg/kg/injection, schedule: Q04DX003 (ip), vehicle: Klucel (hydroxypropylcellulose) (HPC) 101 % of control

Cc1cc(C(C)(C)C)c(O)c(C(C)(C)C)c1
inactive: [5] 110 % of control | [6] 103 % of control | [7] 113 % of control | [4] 103 % of control | [8] 114 % of control | [9] 95 % of control

Nc1cccc(/C=C/C=C\c2cccc([N+](=O)[O-])c2)c1
inactive: [3] 97 % of control | dose: 200.0 mg/kg/injection, schedule: Q01DX001 (ip), vehicle: saline 94 % of control | dose: 400.0 mg/kg/injection, schedule: Q01DX001 (ip), vehicle: saline 92 % of control

CN(C)C1=C(Cl)C(=O)c2ccccc2C1=O
inactive: dose: 50.0 mg/kg/injection, schedule: Q01DX001 (ip), vehicle: saline 102 % of control | [3] 100 % of control

CCCCCN(CCCCC)CC(O)C1c2ccccc2Cc2ccccc21 (stereo unspecified)
inactive: dose: 5.0 mg/kg/injection, schedule: Q01DX001 (ip), vehicle: saline 102 % of control | dose: 10.0 mg/kg/injection, schedule: Q01DX001 (ip), vehicle: saline 98 % of control | dose: 20.0 mg/kg/injection, schedule: Q01DX001 (ip), vehicle: saline 102 % of control | dose: 40.0 mg/kg/injection, schedule: Q01DX001 (ip), vehicle: saline 104 % of control | [3] 101 % of control

CCCCCCCCCCCC(=O)N/N=C/c1ccccc1OC
inactive: [5] 90 % of control | [6] 94 % of control | [7] 87 % of control and 90 % of control

Cc1cc(C)c(CC(=N)c2ccccc2)c(C)c1
inactive: dose: 100.0 mg/kg/injection, schedule: Q01DX001 (ip), vehicle: acetone 96 % of control | dose: 200.0 mg/kg/injection, schedule: Q01DX001 (ip), vehicle: acetone 94 % of control | dose: 400.0 mg/kg/injection, schedule: Q01DX001 (ip), vehicle: acetone 88 % of control

C=CCNC(=S)N(Cc1ccccc1)Cc1ccccc1
inactive: dose: 100.0 mg/kg/injection, schedule: Q04DX002 (ip), vehicle: Klucel (hydroxypropylcellulose) (HPC) 105 % of control | dose: 200.0 mg/kg/injection, schedule: Q04DX002 (ip), vehicle: Klucel (hydroxypropylcellulose) (HPC) 101 % of control | dose: 400.0 mg/kg/injection, schedule: Q04DX002 (ip), vehicle: Klucel (hydroxypropylcellulose) (HPC) 94 % of control

COC1OC(CO)C(O)C(N)C1O (stereo unspecified)
inactive: [1] 109 % of control | [2] 98 % of control

CC(C)OC(=O)Oc1cccc2c1C(=O)c1ccccc1C2=O
inactive: [7] 91 % of control | [4] 97 % of control | [10] 91 % of control | [8] 93 % of control | [9] 104 % of control

COc1ccc([PH+](c2ccc(OC)cc2)c2ccc(OC)cc2)cc1.COc1ccc([PH+](c2ccc(OC)cc2)c2ccc(OC)cc2)cc1.[Cl][Hg][Cl]
inactive: [6] 108 % of control | [7] 101 % of control | [10] 93 % of control

CS(=O)(=O)OC1CCC(OS(C)(=O)=O)CC1 (stereo unspecified)
inactive: dose: 100.0 mg/kg/injection, schedule: Q01DX001 (ip), vehicle: saline with Tween-80 103 % of control | dose: 200.0 mg/kg/injection, schedule: Q01DX001 (ip), vehicle: saline with Tween-80 100 % of control | dose: 400.0 mg/kg/injection, schedule: Q01DX001 (ip), vehicle: saline with Tween-80 100 % of control

O=C(Nc1ccc2ccccc2c1)c1ccc2c(c1)C(=O)OC2=O
inactive: dose: 100.0 mg/kg/injection, schedule: Q01DX001 (ip), vehicle: carboxymethylcellulose (CMC) 97 % of control and 100 % of control | dose: 100.0 mg/kg/injection, schedule: Q01DX009 (ip), vehicle: carboxymethylcellulose (CMC) 97 % of control and 98 % of control | dose: 100.0 mg/kg/injection, schedule: Q04DX002 (ip), vehicle: carboxymethylcellulose (CMC) 96 % of control and 103 % of control | dose: 100.0 mg/kg/injection, schedule: Q04DX003 (ip), vehicle: carboxymethylcellulose (CMC) 100 % of control and 91 % of control | dose: 200.0 mg/kg/injection, schedule: Q01DX001 (ip), vehicle: carboxymethylcellulose (CMC) 93 % of control and 100 % of control | dose: 200.0 mg/kg/injection, schedule: Q01DX009 (ip), vehicle: carboxymethylcellulose (CMC) 96 % of control and 100 % of control | dose: 200.0 mg/kg/injection, schedule: Q04DX002 (ip), vehicle: carboxymethylcellulose (CMC) 99 % of control and 86 % of control | dose: 200.0 mg/kg/injection, schedule: Q04DX003 (ip), vehicle: carboxymethylcellulose (CMC) 92 % of control and 91 % of control | dose: 400.0 mg/kg/injection, schedule: Q01DX001 (ip), vehicle: carboxymethylcellulose (CMC) 93 % of control and 97 % of control | dose: 400.0 mg/kg/injection, schedule: Q01DX009 (ip), vehicle: carboxymethylcellulose (CMC) 100 % of control and 104 % of control | dose: 400.0 mg/kg/injection, schedule: Q04DX002 (ip), vehicle: carboxymethylcellulose (CMC) 95 % of control and 90 % of control | dose: 400.0 mg/kg/injection, schedule: Q04DX003 (ip), vehicle: carboxymethylcellulose (CMC) 88 % of control and 89 % of control

CNCC1OC(n2cc(C)c(=O)[nH]c2=O)CC1O (stereo unspecified)
inactive: dose: 25.0 mg/kg/injection, schedule: Q04DX002 (ip), vehicle: saline 108 % of control | dose: 50.0 mg/kg/injection, schedule: Q04DX002 (ip), vehicle: saline 115 % of control | dose: 100.0 mg/kg/injection, schedule: Q04DX002 (ip), vehicle: saline 97 % of control

CN(Cc1ccccc1)/C(N)=N/N
inactive: dose: 37.5 mg/kg/injection, schedule: Q04DX003 (ip), vehicle: saline 94 % of control | dose: 75.0 mg/kg/injection, schedule: Q04DX003 (ip), vehicle: saline 111 % of control | dose: 150.0 mg/kg/injection, schedule: Q04DX003 (ip), vehicle: saline 97 % of control
